Among the test systems are A549; CCRF-CEM; EKVX; HCC 2998; HL-60; HOP-92; HT-29; IGROV-1; LOX IMVI; MDA-MB-231; MOLT-4; NCI-H460; SF-539; SK-MEL-2; SK-OV-3; SN12C; SR; UACC-62.
Holding throughout (assay): NCI tumour cell line growth inhibition, 48 h

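A five-concentration, 48-hour dose response in 96-well plates underlies each endpoint, interpolated linearly between surrounding concentrations. GI50: concentration for 50% inhibition of growth.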 The source made the active and inactive calls. Cut-off read from the data, not from the text of the source: active = GI50 up to about 1.1 µM and inactive = higher.

Turning to `COC(=O)Cc1c2n(c3ccccc13)C(=O)N1c3ccccc3C(CC(=O)OC)C21` (stereo not drawn), the GI50 in the assay with A549 is 34.2 µM (inactive); in the assay with CCRF-CEM it was > 100 µM (inactive); with EKVX, 45.3 µM (inactive); with HCC 2998, 68.1 µM (inactive); with HL-60, 3.89 µM (inactive); in the assay on HOP-92 it was 9.73 µM (inactive). The GI50 with HT-29 is > 100 µM (inactive); in the assay on IGROV-1, 7.41 µM (inactive); in the assay with LOX IMVI, 63.5 µM (inactive); with MDA-MB-231, 17.3 µM (inactive); in the assay on MOLT-4, > 100 µM (inactive); with NCI-H460, 11.6 µM (inactive). Also, the GI50 in the assay with SF-539 is 16.1 µM (inactive); with SK-MEL-2, 38.7 µM (inactive); in the assay with SK-OV-3 it was 21.8 µM (inactive); in the assay on SN12C, > 100 µM (inactive); in the assay on SR, > 100 µM (inactive); with UACC-62, 23.5 µM (inactive).

With `CC(=O)c1cccc(NC(=O)C(=O)c2c(O)oc3ccccc3c2=O)c1`, the GI50 was > 100 µM (inactive) in the assay on A549; > 100 µM (inactive) with CCRF-CEM; > 100 µM (inactive) with EKVX; > 100 µM (inactive) in the assay on HCC 2998; 10 µM (inactive) in the assay with HL-60; > 100 µM (inactive) in the assay on HOP-92. Further, the GI50 in the assay on HT-29, with IGROV-1, in the assay with LOX IMVI, in the assay on MDA-MB-231, in the assay on MOLT-4 and in the assay with NCI-H460 was > 100 µM (inactive) in each case. For the same compound, the GI50 is > 100 µM (inactive) in the assay on SF-539; 10 µM (inactive) in the assay on SK-MEL-2; > 100 µM (inactive) with SK-OV-3; > 100 µM (inactive) in the assay on SN12C; > 100 µM (inactive) in the assay on SR; > 100 µM (inactive) in the assay on UACC-62.

Consider `N=C(N)NS(=O)(=O)c1ccc(NCc2cccc3c(=O)c4ccc(Cl)cc4oc23)cc1`, for which the GI50 is > 6.75 µM (inactive) in the assay with A549; 1.82 µM (inactive) in the assay on CCRF-CEM; > 9.53 µM (inactive) in the assay on EKVX; > 15.3 µM (inactive) in the assay with HCC 2998; 1.38 µM (inactive) in the assay with HL-60; 3.86 µM (inactive) in the assay on HOP-92. The GI50 is 5.71 µM (inactive) in the assay on HT-29; 3.43 µM (inactive) with IGROV-1; 4.48 µM (inactive) in the assay on LOX IMVI; > 10.8 µM (inactive) with MDA-MB-231; 3.57 µM (inactive) in the assay on MOLT-4; 3.15 µM (inactive) with NCI-H460. Further, the GI50 in the assay with SF-539 was 6.11 µM (inactive); in the assay with SK-MEL-2, > 10.4 µM (inactive); with SK-OV-3 it was > 10.3 µM (inactive); in the assay with SN12C, > 9.27 µM (inactive); in the assay on SR it was 2.08 µM (inactive); in the assay on UACC-62, 6.19 µM (inactive).

For the compound `CC(=O)[C@@]1(O)CC[C@H]2[C@@H]3C[C@H](C)C4=CC(=O)CC[C@]4(C)[C@H]3[C@@H](O)C[C@@]21C`, the GI50 with A549 is 60.1 µM (inactive); with CCRF-CEM, 14.1 µM (inactive); in the assay with EKVX it was 68.7 µM (inactive); in the assay with HCC 2998, > 100 µM (inactive); in the assay with HL-60 it was > 100 µM (inactive); with HOP-92 it was > 100 µM (inactive). Besides, the GI50 is > 100 µM (inactive) with HT-29; > 100 µM (inactive) with IGROV-1; > 100 µM (inactive) in the assay with LOX IMVI; > 100 µM (inactive) in the assay on MDA-MB-231; 46 µM (inactive) in the assay on MOLT-4; > 100 µM (inactive) in the assay on NCI-H460. Besides, the GI50 in the assay on SF-539, in the assay with SK-MEL-2, with SK-OV-3, in the assay on SN12C, in the assay with SR and in the assay with UACC-62 was > 100 µM (inactive) each time.

In the case of `Cn1c(=O)c2c(nc3[nH]c(=O)c(Br)cn32)n(C)c1=O`, the GI50 in the assay on A549 was > 100 µM (inactive); in the assay with CCRF-CEM, > 100 µM (inactive); in the assay on EKVX it was 93.8 µM (inactive); in the assay on HCC 2998 it was > 100 µM (inactive); in the assay on HL-60 it was > 100 µM (inactive); in the assay with HOP-92 it was > 100 µM (inactive). In addition, the GI50 with HT-29, in the assay on IGROV-1, with LOX IMVI, in the assay on MDA-MB-231, in the assay with MOLT-4 and in the assay with NCI-H460 was > 100 µM (inactive) throughout. The GI50 in the assay on SF-539, in the assay on SK-MEL-2, in the assay with SK-OV-3, with SN12C, in the assay with SR and in the assay on UACC-62 was > 100 µM (inactive) throughout.

For `CC(C)C1CC(CO)(CNc2cc(Cl)nc(N)n2)C1` (stereo not drawn), the GI50 with A549 is 39.2 µM (inactive); in the assay with CCRF-CEM it was 75.7 µM (inactive); in the assay with EKVX it was 7.06 µM (inactive); in the assay with HCC 2998, 34.8 µM (inactive); in the assay on HL-60 it was 18.1 µM (inactive); with HOP-92, 45 µM (inactive). Moreover, the GI50 is > 100 µM (inactive) in the assay on HT-29; > 100 µM (inactive) with IGROV-1; 10.4 µM (inactive) in the assay with LOX IMVI; 94 µM (inactive) in the assay on MDA-MB-231; > 10 µM (inactive) in the assay with MOLT-4; 30.9 µM (inactive) in the assay with NCI-H460. Further, the GI50 was 73.8 µM (inactive) in the assay on SF-539; 45.9 µM (inactive) in the assay with SK-MEL-2; > 100 µM (inactive) in the assay with SK-OV-3; > 100 µM (inactive) in the assay on SN12C; 14.9 µM (inactive) in the assay on SR; > 100 µM (inactive) in the assay with UACC-62.

Turning to `COC(=O)CCc1cc(OC)c2c(c1)[C@H](C(=O)OC)[C@@H](c1ccc(O)c(OC)c1)O2`, the GI50 in the assay on A549 was 39.5 µM (inactive); with CCRF-CEM, 33.8 µM (inactive); in the assay with EKVX, 58.2 µM (inactive); in the assay on HCC 2998, 21.4 µM (inactive); in the assay on HL-60, 15.5 µM (inactive); in the assay with HOP-92, > 100 µM (inactive). The GI50 was 36.2 µM (inactive) in the assay on HT-29; 61.8 µM (inactive) with IGROV-1; 57.5 µM (inactive) in the assay on LOX IMVI; 50.6 µM (inactive) with MDA-MB-231; 24.7 µM (inactive) with MOLT-4; 37.8 µM (inactive) with NCI-H460. For the same compound, the GI50 in the assay on SF-539 was 48.2 µM (inactive); in the assay on SK-MEL-2 it was 33.1 µM (inactive); with SK-OV-3, 42.8 µM (inactive); in the assay on SN12C, 56.9 µM (inactive); in the assay on SR, 1.43 µM (inactive); with UACC-62, 39.8 µM (inactive).

Consider `C1CSC(Sc2nc(SC3=NCCS3)nc(SC3=NCCS3)n2)=N1`, for which the GI50 in the assay with A549, in the assay on CCRF-CEM, in the assay on EKVX, in the assay on HCC 2998, in the assay on HL-60 and in the assay with HOP-92 was > 100 µM (inactive) throughout. Moreover, the GI50 in the assay on HT-29, in the assay with IGROV-1, in the assay with LOX IMVI, in the assay with MDA-MB-231, in the assay on MOLT-4 and in the assay on NCI-H460 was > 100 µM (inactive) throughout. Moreover, the GI50 in the assay on SF-539, in the assay on SK-MEL-2, in the assay with SK-OV-3, with SN12C, in the assay with SR and in the assay on UACC-62 was > 100 µM (inactive) each time.

As for `O=[N+]([O-])c1ccc(N/N=C/CC(O)(C(F)(F)F)C(F)(F)F)c([N+](=O)[O-])c1`, the GI50 in the assay with A549 is 4.69 µM (inactive); in the assay on CCRF-CEM, 3.99 µM (inactive); in the assay with EKVX, 5.35 µM (inactive); in the assay with HCC 2998, 5.32 µM (inactive); in the assay on HL-60 it was 4.07 µM (inactive); in the assay with HOP-92, 2.17 µM (inactive). In addition, the GI50 in the assay on HT-29 is 4.38 µM (inactive); in the assay with IGROV-1, 4.47 µM (inactive); in the assay with LOX IMVI, 5.55 µM (inactive); with MDA-MB-231 it was > 10 µM (inactive); in the assay with MOLT-4 it was 3.78 µM (inactive); in the assay on NCI-H460, 2.97 µM (inactive). Moreover, the GI50 in the assay on SF-539 is 2.3 µM (inactive); with SK-MEL-2, 2.21 µM (inactive); in the assay on SK-OV-3, 4.8 µM (inactive); in the assay on SN12C it was 3.41 µM (inactive); with SR, 5.06 µM (inactive); in the assay with UACC-62, 4.06 µM (inactive).

For `Cc1cc(S(=O)(=O)Nc2nc(Nc3ccc(Cl)cc3)n[nH]2)c(S)cc1Cl`, the GI50 with A549, in the assay on CCRF-CEM, with EKVX, in the assay on HCC 2998, in the assay with HL-60 and in the assay with HOP-92 was > 100 µM (inactive) each time. Also, the GI50 in the assay on HT-29 was 81.1 µM (inactive); in the assay with IGROV-1, 70.5 µM (inactive); with LOX IMVI it was 75.7 µM (inactive); in the assay on MDA-MB-231, > 100 µM (inactive); in the assay on MOLT-4, > 100 µM (inactive); in the assay on NCI-H460 it was 86.9 µM (inactive). Besides, the GI50 was > 100 µM (inactive) in the assay with SF-539; > 100 µM (inactive) with SK-MEL-2; > 100 µM (inactive) in the assay on SK-OV-3; > 100 µM (inactive) in the assay on SN12C; > 100 µM (inactive) in the assay with SR; 18.9 µM (inactive) with UACC-62.

With `COc1cc([C@@H]2c3[nH]c4ccccc4c3C(Nc3ccc([N+](=O)[O-])cc3)[C@H]3COC(=O)N23)cc(OC)c1O` (stereo partly drawn), the GI50 was 0.0531 µM (active) with A549; 0.0395 µM (active) with CCRF-CEM; 1.78 µM (inactive) in the assay with EKVX; 0.392 µM (active) in the assay on HCC 2998; < 0.01 µM (active) in the assay with HL-60; 0.229 µM (active) in the assay on HOP-92. In addition, the GI50 in the assay with HT-29 is 0.228 µM (active); in the assay on IGROV-1, 0.406 µM (active); in the assay with LOX IMVI, 0.0822 µM (active); with MDA-MB-231, 0.352 µM (active); with MOLT-4, 0.014 µM (active); with NCI-H460 it was < 0.0181 µM (active). Moreover, the GI50 with SF-539 is 0.124 µM (active); in the assay on SK-MEL-2, 0.847 µM (active); with SK-OV-3, 0.269 µM (active); in the assay with SN12C, 0.187 µM (active); with SR it was 0.0481 µM (active); in the assay on UACC-62 it was 0.195 µM (active).
